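Following 48 hours of exposure in 96-well plates, responses at five concentrations were used to interpolate endpoints linearly. TGI: total growth inhibition.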
Tests used:
Experiment in all cases: inhibition of tumour cell growth, NCI panel, 48 h
K-562 leukemia = tested on: K-562 leukemia
A549 NSCLC = tested on: A549 NSCLC
SNB-75 CNS = tested on: SNB-75 CNS
OVCAR-4 ovarian = tested on: OVCAR-4 ovarian
MCF7 breast = tested on: MCF7 breast
MOLT-4 leukemia = tested on: MOLT-4 leukemia
EKVX NSCLC = tested on: EKVX NSCLC
TK-10 renal = tested on: TK-10 renal
NCI-H23 lung = tested on: NCI-H23 lung
UO-31 renal = tested on: UO-31 renal
SNB-19 CNS = tested on: SNB-19 CNS
SW-620 colon = tested on: SW-620 colon
RPMI-8226 leukemia = tested on: RPMI-8226 leukemia
OVCAR-5 ovarian = tested on: OVCAR-5 ovarian
KM12 colon = tested on: KM12 colon
ACHN renal = tested on: ACHN renal
SF-268 CNS = tested on: SF-268 CNS
HCT-15 colon = tested on: HCT-15 colon
HOP-62 NSCLC = tested on: HOP-62 NSCLC
SK-OV-3 ovarian = tested on: SK-OV-3 ovarian
HT29 colon = tested on: HT29 colon
UACC-257 melanoma = tested on: UACC-257 melanoma
LOX IMVI melanoma = tested on: LOX IMVI melanoma
MDA-MB-231 breast = tested on: MDA-MB-231 breast
SK-MEL-5 melanoma = tested on: SK-MEL-5 melanoma
PC-3 prostate = tested on: PC-3 prostate
HCT-116 colon = tested on: HCT-116 colon
HS 578T breast = tested on: HS 578T breast
UACC-62 melanoma = tested on: UACC-62 melanoma
NCI/ADR-RES ovarian = tested on: NCI/ADR-RES ovarian
NCI-H226 lung = tested on: NCI-H226 lung
SK-MEL-2 melanoma = tested on: SK-MEL-2 melanoma
MDA-N = tested on: MDA-N
T-47D breast = tested on: T-47D breast
MDA-MB-435 = tested on: MDA-MB-435
M14 melanoma = tested on: M14 melanoma
786-0 renal = tested on: 786-0 renal
SN12C renal = tested on: SN12C renal
OVCAR-3 ovarian = tested on: OVCAR-3 ovarian
SF-539 CNS = tested on: SF-539 CNS
SK-MEL-28 melanoma = tested on: SK-MEL-28 melanoma
DU-145 prostate = tested on: DU-145 prostate
NCI-H460 lung = tested on: NCI-H460 lung
HCC-2998 colon = tested on: HCC-2998 colon
MALME-3M melanoma = tested on: MALME-3M melanoma
IGROV1 ovarian = tested on: IGROV1 ovarian
U251 CNS = tested on: U251 CNS
COLO 205 colon = tested on: COLO 205 colon
SR leukemia = tested on: SR leukemia
SF-295 CNS = tested on: SF-295 CNS
CAKI-1 renal = tested on: CAKI-1 renal
RXF 393 renal = tested on: RXF 393 renal
HL-60(TB) leukemia = tested on: HL-60(TB) leukemia
A498 renal = tested on: A498 renal
CCRF-CEM leukemia = tested on: CCRF-CEM leukemia
OVCAR-8 ovarian = tested on: OVCAR-8 ovarian
NCI-H522 lung = tested on: NCI-H522 lung
HOP-92 NSCLC = tested on: HOP-92 NSCLC

Measured: TGI

Cc1c2c(n(CCc3ccc(Cl)cc3)c1C)NN=C(C#N)S2(=O)=O
not listed: SF-295 CNS | CAKI-1 renal | RXF 393 renal | HL-60(TB) leukemia | A498 renal | CCRF-CEM leukemia | OVCAR-8 ovarian | NCI-H522 lung | HOP-92 NSCLC
> 100 µM: all other assays above

CC1(C)N=C(C(N)=O)c2ncn(CCCO)c2N1
not listed: MOLT-4 leukemia | UO-31 renal | SK-MEL-2 melanoma
> 100 µM: all other assays above
